The values that follow come from PMC8639922, “KSHV transactivator-derived small peptide traps coactivators to attenuate MYC and inhibits leukemia and lymphoma cell growth” (Communications Biology, 2021).

Square brackets hold non-standard residues; d marks the D form. Peptide text beside a SMILES is read from it. Orn = NCCC[C@H](N)C(=O)O; βAla = NCCC(=O)O

Common to all, as to assay type: cell-based, human
Experiment [1] deals with MYC promoter and putative enhancer regions. In words: CUT&RUN qPCR, H3K27Ac modification. More on the design: key: enrichment normalized to spiked-in luciferase plasmid DNA control. The conditions noted are these: spiked-in luciferase plasmid control. From the text: We next examined the molecular mechanism of MYC down-regulation by VGN50. We first utilized Cleavage under targets & release using nuclease (CUT&RUN)-sequencing to examine histone modifications that are known to be associated with enhancers in order to map putative MYC enhancer regions in PEL cells (Fig. 5a). Genome-wide CUT&RUN studies identified putative enhancer and promoter regulatory regions that are marked by H3K27Ac, H3K4me1, POLR2A (RNAPII), BRD4, and SMARCC1, a component of the SWI/SNF complex (Fig. 1b and 5a). The identified putative MYC enhancers were also in good agreement with previous ChIP Hi-C[53] and ChIP-seq data sets[54]. Specific primer pairs were then designed to amplify the respective enhancer regions and to examine regulation of coactivator complex recruitment by VGN50.
Fig. 5 A molecular mechanism of VGN50-mediated MYC-down-regulation. a Cleavage under targets & release using nuclease (CUT&RUN). CUT&RUN was performed with BCBL-1 and BC-1 with the indicated antibodies. Enrichment of active histone modifications, and occupancies of RNAPII and SWI/SNF components at the MYC genomic region are shown as peaks. One of the biological duplicate samples for the BCBL-1 cell line is presented. […] The MYC promoter, enhancer, and negative control regions used for qPCR analyses are indicated with shading. The positions of the MYC coding region, CASC11 coding region, and long non-coding RNA, PVT1, MIR1208 are shown in the panel. b VGN50 inhibits coactivator complex recruitment and c reduces H3K27Ac modification. qPCR is used to examine enrichment of DNA fragments in the presence of VGN50 or mutant peptide (24 μM). Peptide was applied 1 h prior to processing samples for CUT&RUN to replicate SLAM-seq experimental conditions. Non-specific IgG control was also included and enrichment with IgG control at each genomic region was set as 1 for b, and spiked-in luciferase plasmid DNA was used for additional internal control for c. d Formation of a larger protein complex with VGN50. Sucrose gradient sedimentation was used to monitor changes in protein complex formation in the presence of VGN50. The experiment flow chart is shown at the top of this panel. Fractions were collected from top (#1) to bottom (#23/24). Sample #24 without peptide is a smaller fraction of residual samples. Immunoblotting was performed on the odd number samples and the remaining fraction (#24 for no peptide sample) and probed with Flag-tagged SWI/SNF components (SMARCA4, SMARCC2, and SMARCB1). The position of each protein component based on molecular size is indicated. e KSHV K-Rta colocalizes with SWI/SNF components in reactivating BCBL-1 cells. TREx-BCBL-1 cells were triggered for reactivation by treatment with Dox and TPA for 28 h and stained with the indicated antibodies. Images were acquired with Keyence fluorescence microscopy. f A model for VGN50 molecular action. A model depicting the putative molecular action of VGN50 is presented. Coactivator complexes are dynamically assembled on enhancer and promoter regions via transcription factor binding. VGN50, an IDR fragment derived from an exceptionally potent viral transactivator, flexibly interacts with components of coactivators and traps them, thus reduces the available resources for cellular enhancers to activate MYC promoters.
CUT&RUN[72] was performed essentially by following the online protocol developed by Dr. Henikoff’s lab with a few modifications to fit our needs. Cells were washed with PBS and wash buffer [20 mM HEPES-KOH pH 7.5, 150 mM NaCl, 0.5 mM Spermidine (Sigma, S2626), and proteinase inhibitor (Roche)]. After removing the wash buffer, cells were captured on magnetic concanavalin A (ConA) beads (Polysciences, PA, USA) in the presence of CaCl2. […]
On the technique in general: Quantitative PCR measures a nucleic acid by following its amplification.

Experiment [2] relates to BC-1. Nature of the experiment: Flow cytometry, cell proliferation (Ki67 staining). Conditions: BC-1, 24 h. The procedure: (§1) Leukoreduction system chambers (LRS) from healthy donors were purchased from Vitalant. Peripheral blood mononuclear cells (PBMCs) were prepared by a standard Ficoll gradient method. PBMCs along with THP-1 and BCBL-1 cell lines (2 × 10^6 cells/ml, 0.2 ml 10% FBS/RPMI/DMEM per well of a 96-well plate) were treated with various doses (0–256 μM) of either VGN50 peptide or control mutant peptide for 24 h. Cell death, apoptosis, and proliferation were analyzed by flow cytometry (BD Acuri) after intracellular staining with anti-humanKi67-Alexa488 (Biolegend, 1:100) along with the isotype control antibody, annexin-V-FITC with 7-AAD staining (Biolegend) according to the manufacture’s protocol, Live/dead Fixable Red Dead Cell staining kit (Invitrogen) according to the manufacture’s protocol, or MTT assay. Peptides were commercially synthesized (GenScript) with >90% purity with TFA removal. […]
(§2) Isotype control Anti-Ki67 antibody
(§3) S-Figure 3. Flow cytometry analyses […]
(§4) Repr esent at i ve FACS pl ot s wi t h ancest r y gat i ng st r at egy of Ki 67+ popul at i on f or
(§5) BCBL-1 and BC-1 cel l s t r eat ed wi t h PBS wi t h an i sot ype cont r ol ar e shown. Mean +/-SD of
(§6) Ki 67% of t ot al BCBL-1 and BC-1 cel l s anal yzed ar e shown i n Fi g. 2e.

Experiment [3] deals with BCBL-1. In words: Flow cytometry, cell proliferation (Ki67 staining). The conditions noted are these: BCBL-1, 24 h. The procedure: as §1, §2, §3, §4, §5, §6
Background: In flow cytometry, cells or beads pass a laser one at a time.

Take `CC(C)C[C@H](NC(=O)CCNC(=O)[C@H](CCCNC(=N)N)NC(=O)[C@H](CCCNC(=N)N)NC(=O)[C@H](CCCNC(=N)N)NC(=O)[C@H](CCCN)NC(=O)[C@H](CCCNC(=N)N)NC(=O)[C@H](CCCNC(=N)N)NC(=O)[C@H](CCCCN)NC(=O)[C@H](CCCCN)NC(=O)[C@H](N)CCCNC(=N)N)C(=O)N[C@@H](CO)C(=O)N[C@@H](CO)C(=O)N[C@@H](C)C(=O)N[C@@H](C)C(=O)N[C@@H](C)C(=O)NCC(=O)N[C@@H](CC(C)C)C(=O)N[C@@H](Cc1ccc(O)cc1)C(=O)N[C@@H](CCC(N)=O)C(=O)N[C@@H](CC(C)C)C(=O)N[C@@H](CC(=O)O)C(=O)N[C@H](C(=O)O)[C@@H](C)O` [Mt-P] (H-[dR]KKRR[Orn]RRR[βAla]LSSAAAGLYQLDT-OH; N-terminus and C-terminus assumed): the “H3K27Ac enrichment, CUT&RUN qPCR” value in experiment [1] (region Cont., peptide 24 μM 1 h, replicate 1) worked out at 1.234; in experiment [1] (region Cont., peptide 24 μM 1 h, replicate 2), 1.768; in experiment [1] (region Cont., peptide 24 μM 1 h, replicate 3), 1.486; in experiment [1] (region E3, peptide 24 μM 1 h, replicate 1) it was 2.706; in experiment [1] (region E3, peptide 24 μM 1 h, replicate 2), 2.727; in experiment [1] (region E3, peptide 24 μM 1 h, replicate 3) it was 2.006. For the same compound, the “H3K27Ac enrichment, CUT&RUN qPCR” value in experiment [1] (region E4, peptide 24 μM 1 h, replicate 1) is 25.383; in experiment [1] (region E4, peptide 24 μM 1 h, replicate 2), 24.888; in experiment [1] (region E4, peptide 24 μM 1 h, replicate 3), 21.090; in experiment [1] (region E5, peptide 24 μM 1 h, replicate 1), 8.581; in experiment [1] (region E5, peptide 24 μM 1 h, replicate 2), 8.863; in experiment [1] (region E5, peptide 24 μM 1 h, replicate 3), 8.913. The “H3K27Ac enrichment, CUT&RUN qPCR” value in experiment [1] (region P1, peptide 24 μM 1 h, replicate 1) is 6.685; in experiment [1] (region P1, peptide 24 μM 1 h, replicate 2), 5.570; in experiment [1] (region P1, peptide 24 μM 1 h, replicate 3), 7.094. Besides, the Ki67% came to 43.3912% in experiment [2] (replicate 1); 42.2259% in experiment [2] (replicate 2); 43.3434% in experiment [2] (replicate 3); 33.8765% in experiment [3] (replicate 1); 32.9445% in experiment [3] (replicate 2); 29.2345% in experiment [3] (replicate 3).
